Reference: PubChem BioAssay (NCI)
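Values below derive from 48-hour exposures of cells grown in 96-well plates, with endpoints linearly interpolated between the two concentrations bracketing the appropriate inhibition level. TGI: total growth inhibition.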

Legend:
Assay in all cases: growth of human tumour cells (NCI), 48 h
[1] = system: SK-MEL-5 melanoma
[2] = system: NCI/ADR-RES ovarian
[3] = system: HOP-62 NSCLC
[4] = system: SNB-75 CNS
[5] = system: UACC-62 melanoma
[6] = system: DU-145 prostate
[7] = system: MCF7 breast
[8] = system: ACHN renal
[9] = system: HL-60(TB) leukemia
[10] = system: UACC-257 melanoma
[11] = system: HT29 colon
[12] = system: NCI-H226 lung
[13] = system: OVCAR-8 ovarian
[14] = system: HCT-116 colon
[15] = system: A498 renal
[16] = system: OVCAR-5 ovarian
[17] = system: SF-268 CNS
[18] = system: HCC-2998 colon
[19] = system: NCI-H522 lung
[20] = system: T-47D breast
[21] = system: OVCAR-4 ovarian
[22] = system: NCI-H23 lung
[23] = system: COLO 205 colon
[24] = system: SK-MEL-28 melanoma
[25] = system: M14 melanoma
[26] = system: RXF 393 renal
[27] = system: CAKI-1 renal
[28] = system: HOP-92 NSCLC
[29] = system: EKVX NSCLC
[30] = system: SW-620 colon
[31] = system: IGROV1 ovarian
[32] = system: SN12C renal
[33] = system: MDA-MB-435
[34] = system: OVCAR-3 ovarian
[35] = system: SF-539 CNS
[36] = system: NCI-H460 lung
[37] = system: SK-MEL-2 melanoma
[38] = system: TK-10 renal
[39] = system: HCT-15 colon
[40] = system: CCRF-CEM leukemia
[41] = system: SNB-19 CNS
[42] = system: SF-295 CNS
[43] = system: PC-3 prostate
[44] = system: U251 CNS
[45] = system: KM12 colon
[46] = system: UO-31 renal
[47] = system: SK-OV-3 ovarian
[48] = system: RPMI-8226 leukemia
[49] = system: BT-549 breast
[50] = system: MALME-3M melanoma
[51] = system: A549 NSCLC
[52] = system: K-562 leukemia
[53] = system: 786-0 renal
[54] = system: SR leukemia
[55] = system: MDA-MB-231 breast
[56] = system: MDA-N
[57] = system: HS 578T breast
[58] = system: LOX IMVI melanoma
[59] = system: MOLT-4 leukemia

Measured: TGI

O=C1c2ccccc2C(=O)c2c(NC(=O)C(Cl)CCl)cccc21 (configuration not stated)
24.3 µM: [43]
35.5 µM: [24]
42.7 µM: [29]
2.38 µM: [40]
10.5 µM: [11]
18.4 µM: [55]
38.8 µM: [27]
12.2 µM: [37]
0.395 µM: [52]
20.9 µM: [25]
47.2 µM: [50]
2.11 µM: [48]
34.1 µM: [16]
20 µM: [31]
9.82 µM: [28]
28.4 µM: [14]
> 100 µM: [57]
31.1 µM: [36]
8.26 µM: [45]
28.1 µM: [1]
24.6 µM: [6] | [56]
36.5 µM: [10]
48.3 µM: [12]
23.4 µM: [39]
18.1 µM: [38]
14.7 µM: [30]
16.2 µM: [26]
23 µM: [33]
23.1 µM: [34]
32.9 µM: [41]
11.5 µM: [35]
31.2 µM: [49]
36.2 µM: [15]
25 µM: [17]
> 38.4 µM: [44]
> 77.6 µM: [2]
32.4 µM: [4] | [18]
> 62.1 µM: [42]
2.68 µM: [9]
29 µM: [8]
47.6 µM: [51]
> 27.5 µM: [20]
24.1 µM: [46]
23.6 µM: [3]
11.9 µM: [53]
0.347 µM: [54]
7.13 µM: [19]
39.1 µM: [47]
11.6 µM: [22]
33.9 µM: [5]
21.4 µM: [32]
26.9 µM: [23]
2.47 µM: [7]
23.3 µM: [21]
> 39.1 µM: [13]

Cc1cc(S(=O)(=O)Nc2nc3ccccc3[nH]2)c(S)cc1Cl
80.6 µM: [40]
99.5 µM: [29]
73.5 µM: [24]
76.5 µM: [14]
39.8 µM: [58]
78.3 µM: [44]
not listed: [12] | [50]
> 100 µM: all other assays above

N#C/C(=C\c1ccc(F)cc1)c1nc2ccccc2c(=O)[nH]1
74.5 µM: [4]
not listed: [1] | [15] | [22] | [34]
> 100 µM: all other assays above

CC1=C(C(=O)NNC(=O)C(N)=O)CC(C(=O)NNC(=O)C(N)=O)=C(C)N1
not listed: [50]
> 100 µM: all other assays above
